Source: PubChem BioAssay (NCI)
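These data come from cells grown in 96-well plates and exposed to compound for 48 hours at five concentrations. At the TGI there is no net growth.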

Experiments:
Assay in all cases: DTP human tumour cell line panel, 48 h
[1] = system: MDA-N
[2] = system: OVCAR-5 ovarian
[3] = system: KM12 colon
[4] = system: RPMI-8226 leukemia
[5] = system: TK-10 renal
[6] = system: SK-OV-3 ovarian
[7] = system: NCI-H522 lung
[8] = system: SNB-19 CNS
[9] = system: LOX IMVI melanoma
[10] = system: RXF 393 renal
[11] = system: UO-31 renal
[12] = system: EKVX NSCLC
[13] = system: UACC-257 melanoma
[14] = system: A498 renal
[15] = system: A549 NSCLC
[16] = system: OVCAR-4 ovarian
[17] = system: SK-MEL-2 melanoma
[18] = system: HCT-15 colon
[19] = system: SNB-75 CNS
[20] = system: HS 578T breast
[21] = system: K-562 leukemia
[22] = system: MDA-MB-231 breast
[23] = system: 786-0 renal
[24] = system: IGROV1 ovarian
[25] = system: HCC-2998 colon
[26] = system: HOP-62 NSCLC
[27] = system: ACHN renal
[28] = system: T-47D breast
[29] = system: SR leukemia
[30] = system: NCI/ADR-RES ovarian
[31] = system: NCI-H460 lung
[32] = system: M14 melanoma
[33] = system: SN12C renal
[34] = system: UACC-62 melanoma
[35] = system: HT29 colon
[36] = system: DU-145 prostate
[37] = system: NCI-H226 lung
[38] = system: SK-MEL-28 melanoma
[39] = system: COLO 205 colon
[40] = system: CCRF-CEM leukemia
[41] = system: HCT-116 colon
[42] = system: SW-620 colon
[43] = system: HL-60(TB) leukemia
[44] = system: MOLT-4 leukemia
[45] = system: MALME-3M melanoma
[46] = system: SF-295 CNS
[47] = system: NCI-H23 lung
[48] = system: CAKI-1 renal
[49] = system: MDA-MB-435
[50] = system: PC-3 prostate
[51] = system: OVCAR-3 ovarian
[52] = system: SF-268 CNS
[53] = system: SK-MEL-5 melanoma
[54] = system: SF-539 CNS
[55] = system: U251 CNS
[56] = system: MCF7 breast
[57] = system: OVCAR-8 ovarian

Structure (SMILES): COc1cc2nn(-c3ccccc3)nc2c2nonc12
- TGI [1]: > 100000 nM
- TGI [2]: > 100000 nM
- TGI [3]: > 100000 nM
- TGI [4]: > 100000 nM
- TGI [5]: > 100 µM
- TGI [6]: > 100 µM
- TGI [7]: > 100000 nM
- TGI [8]: > 100 µM
- TGI [9]: > 100000 nM
- TGI [10]: > 100 µM
- TGI [11]: > 100000 nM
- TGI [12]: > 100 µM
- TGI [13]: > 100 µM
- TGI [14]: > 100 µM
- TGI [15]: > 100000 nM
- TGI [16]: > 100 µM
- TGI [17]: > 100 µM
- TGI [18]: > 100000 nM
- TGI [19]: > 100 µM
- TGI [20]: > 100 µM
- TGI [21]: > 100000 nM
- TGI [22]: > 100 µM
- TGI [23]: > 100000 nM
- TGI [24]: > 100000 nM
- TGI [25]: > 100 µM
- TGI [26]: > 100000 nM
- TGI [27]: > 100000 nM
- TGI [28]: > 100000 nM
- TGI [29]: > 100000 nM
- TGI [30]: > 100000 nM
- TGI [31]: > 100000 nM
- TGI [32]: > 100 µM
- TGI [33]: > 100 µM
- TGI [34]: > 100 µM
- TGI [35]: > 100000 nM
- TGI [36]: > 100000 nM
- TGI [37]: > 100 µM
- TGI [38]: > 100 µM
- TGI [39]: > 100000 nM
- TGI [40]: > 100000 nM
- TGI [41]: > 100000 nM
- TGI [42]: > 100000 nM
- TGI [43]: > 100000 nM
- TGI [44]: > 100000 nM
- TGI [45]: > 100 µM
- TGI [46]: > 100000 nM
- TGI [47]: > 100 µM
- TGI [48]: > 100000 nM
- TGI [49]: > 100000 nM
- TGI [50]: > 100000 nM
- TGI [51]: > 100000 nM
- TGI [52]: > 100000 nM
- TGI [53]: > 100000 nM
- TGI [54]: > 100000 nM

Structure (SMILES): CC/C=C/C(CC)C/C(C)=C\[C@]1(CC)C[C@H](CC)[C@H](CC(=O)O)OO1 (stereo partly drawn)
- TGI [1]: 2710 nM
- TGI [2]: 2640 nM
- TGI [3]: 235 nM
- TGI [4]: 395 nM
- TGI [6]: 3.3 µM
- TGI [55]: 1790 nM
- TGI [7]: 331 nM
- TGI [8]: 3.34 µM
- TGI [9]: 129 nM
- TGI [11]: 36.8 nM
- TGI [13]: 11.1 µM
- TGI [14]: 3.07 µM
- TGI [15]: 281 nM
- TGI [17]: 3.22 µM
- TGI [18]: 1620 nM
- TGI [20]: 5.31 µM
- TGI [21]: 1480 nM
- TGI [22]: 3.31 µM
- TGI [23]: 2610 nM
- TGI [24]: 208 nM
- TGI [56]: 3.58 µM
- TGI [26]: 2200 nM
- TGI [27]: 641 nM
- TGI [28]: 2990 nM
- TGI [29]: 287 nM
- TGI [30]: 1840 nM
- TGI [31]: 360 nM
- TGI [32]: 3.6 µM
- TGI [33]: 3.05 µM
- TGI [34]: 3.07 µM
- TGI [35]: 1830 nM
- TGI [36]: 1640 nM
- TGI [37]: 4.58 µM
- TGI [39]: 2720 nM
- TGI [40]: 410 nM
- TGI [41]: 1430 nM
- TGI [42]: 1420 nM
- TGI [43]: 2270 nM
- TGI [44]: 494 nM
- TGI [46]: 1190 nM
- TGI [47]: 3.05 µM
- TGI [48]: 967 nM
- TGI [57]: 3.23 µM
- TGI [49]: 2800 nM
- TGI [50]: 1240 nM
- TGI [51]: 2480 nM
- TGI [52]: 2900 nM
- TGI [53]: 2540 nM
- TGI [54]: 2930 nM
